Like-named read-outs stand apart in the source and are kept apart here.
Test system: inflammatory cytokine IL-6
Assay: Inhibition of cytokine IL-6 in PMA-differentiated, LPS-treated THP-1 cells (Cytometric Bead Array, flow cytometry)
Type: cell-based, human
Conditions: PMA 160 nM 36 h, compound 2 h then LPS 24 h, IL-6 in culture solution by CBA, read-out: Half maximal inhibitory concentration (IC50) value on inflammatory cytokine IL-6
Procedure: Culture of THP-1 cells and treatment of THP-1 cells with test compounds in combination with LPS
THP-1 cells (from the Cell Bank of the Chinese Academy of Sciences) were cultured in RPMI-1640 medium containing 10% FBS in a 5% CO2 incubator at 37° C. 100 μL of a cell suspension in a complete culture medium containing antibiotics (100 μg/mL streptomycin and 100 U/mL penicillin) and PMA (final concentration: 160 nM) was added to each well in a 96-well plate (about 5×10^4 cells/well). After 36 h of treatment, the cells achieved adherent growth.
The PMA-containing medium was discarded and then the cells were washed with 1×PBS solution. Serum-free RPMI-1640 (2 mL) was added and the cells were treated for 12 h. The active compounds to be tested were diluted into five concentration gradients and added to each well for a 2-hour treatment. The culture solutions containing the compounds were retained and the cells were treated with a serum-free medium ([…]) containing LPS (1 mg/mL) for 24 h.
The content assay for cytokine IL-6 in the culture solution was performed according to the Human Inflammation Cytometric Bead Array (CBA) method in the manufacturer's instructions. After the above-mentioned cytokine levels were determined on the FACSCalibur flow cytometer, the FCAP Array software was used to analyze the results.

IC50 (Homo sapiens) | IC50 (listed as control drug) | IC50 | Compound
5.76 ± 1.18 µM |  |  | CC[C@H](C)C[C@@]1(O)C(=O)NC[C@H](O)[C@@H](OC)C(=O)O[C@H](CO)C/C=C(\C)[C@@H]2C(C)=C[C@@]3(C)O[C@@H]4C[C@@]1(O)O[C@]4(C)[C@@H]23 [Compound 3, Somalactam C]
11.1 ± 0.13 µM |  |  | CC[C@H](C)C[C@@]1(O)C(=O)NC[C@H](O)[C@@H](OC)C(=O)OC[C@@H](O)C/C=C(\C)[C@H]2C(C)=C[C@]3(C)O[C@@H]4C[C@@]1(O)O[C@]4(C)[C@H]23 [Compound 2, Somalactam B]
9.12 ± 0.15 µM |  |  | CC[C@H](C)C[C@@]1(O)C(=O)NC[C@H](O)[C@@H](OC)C(=O)O[C@@H]2CO[C@]3(C)C=C(C)[C@@H](/C(C)=C/[C@@]4(C)O[C@]1(O)C[C@H]4O)[C@@H]3C2 [Compound 4, Somalactam D]
 | 6.02 ± 0.12 µM | 9.22 ± 0.12 µM | Tocilizumab [reference compound]
10.54 ± 0.06 µM |  |  | CC[C@H](C)C[C@]1(O)C(=O)C[C@@H](O)[C@@]2(C)C=C(C)[C@H](O2)/C(C)=C/C(C)=C/C[C@@H](CO)OC(=O)[C@H](OC)[C@@H](O)CNC1=O [Compound 1, Somalactam A]

From patent US20250114326A1, “POLAR MARINE-DERIVED MACROCYCLIC LACTAM COMPOUND, AND PREPARATION METHOD THEREFOR AND USE THEREOF” (RENJI HOSPITAL, SCHOOL OF MEDICINE, SHANGHAI JIAO TONG …, priority 2021, published 2025)
